Reference: patent publication US5159077A, “Penam antibacterial compounds” (Hoffmann-La Roche Inc., priority 1989, dated 1992)
Structures can show the parent of a compound that is named as a salt. Where two headings read alike, the source gives them in different places.

Tests used:
[1] = test system: Pseudomonas aeruginosa ATCC 27853; assay: In vitro MIC, Broth Dilution Method; assay type: cell-based; details: ATCC27853; Broth Dilution Method; Pseudomonas aeruginosa ATCC 27853; read-out: In Vitro MIC
Procedure: (§1) The diluted agents prepared in Mueller-Hinton broth were dispensed from a Dynatech MIC 2000 machine, in 100 microliter (μL) volumes into 96 well trays and used immediately or frozen at -10° to -70° C. until needed. Using a Dynatech inoculator and inoculum trays, 1.5 μL of a 10^-2 dilution of an overnight culture was added to each well of the tray. The tops of the trays were then sealed with tape, and the trays were incubated overnight at 37° C. and then examined with a viewer. The lowest concentration at which no growth was observed was considered to be the minimum inhibitory concentration (MIC).

[2] = test system: Proteus vulgaris ATCC 6380; assay: In vitro MIC, Broth Dilution Method; assay type: cell-based
Procedure: as §1

[3] = test system: Proteus mirabilis 90; assay: In vitro MIC, Broth Dilution Method; assay type: cell-based; details: Broth Dilution Method; Proteus mirabilis 90; read-out: In Vitro MIC
Procedure: as §1

[4] = test system: Citrobacter freundii BS-16; assay: In vitro MIC, Broth Dilution Method; assay type: cell-based
Procedure: as §1

[5] = test system: Enterobacter cloacae 5699; assay: In vitro MIC, Broth Dilution Method; assay type: cell-based
Procedure: as §1

[6] = test system: Serratia marcescens SM; assay: In vitro MIC, Broth Dilution Method; assay type: cell-based; details: read-out: In Vitro MIC
Procedure: as §1

[7] = test system: Streptococcus pneumoniae 6301; assay: In vitro MIC, Broth Dilution Method; assay type: cell-based; details: Broth Dilution Method; Streptococcus pneumoniae 6301; read-out: In Vitro MIC
Procedure: as §1

[8] = test system: Proteus mirabilis 2; assay: In vitro MIC, Broth Dilution Method; assay type: cell-based; details: Proteus mirabilis, 2, read-out: In Vitro MIC
Procedure: as §1

[9] = test system: Escherichia coli 4; assay: In vitro MIC, Broth Dilution Method; assay type: cell-based; details: Broth Dilution Method; Escherichia coli 4; read-out: In Vitro MIC
Procedure: as §1

[10] = test system: Staphylococcus aureus ATCC 29213; assay: In vitro MIC, Broth Dilution Method; assay type: cell-based; details: ATCC29213; Broth Dilution Method; Staphylococcus aureus ATCC 29213; read-out: In Vitro MIC
Procedure: as §1

[11] = test system: Enterobacter cloacae P99; assay: In vitro MIC, Broth Dilution Method; assay type: cell-based; details: P99, read-out: In Vitro MIC
Procedure: as §1

[12] = test system: Escherichia coli TEM-1; assay: In vitro MIC, Broth Dilution Method; assay type: cell-based; details: TEM1, read-out: In Vitro MIC
Procedure: as §1

[13] = test system: Streptococcus faecalis ATCC 29212; assay: In vitro MIC, Broth Dilution Method; assay type: cell-based; details: Enterococcus faecalis, ATCC29212; Broth Dilution Method; Streptococcus faecalis ATCC 29212; read-out: In Vitro MIC
Procedure: as §1

[14] = test system: Klebsiella pneumoniae A; assay: In vitro MIC, Broth Dilution Method; assay type: cell-based; details: Broth Dilution Method; Klebsiella pneumoniae A; read-out: In Vitro MIC
Procedure: as §1

[15] = test system: Pseudomonas aeruginosa 56; assay: In vitro MIC, Agar Well Diffusion Method; assay type: cell-based; details: Agar Well Diffusion Method; Pseudomonas aeruginosa 56; read-out: In Vitro MIC
Procedure: (§2) In vitro antimicrobial activity was determined in BBL seed agar. Serial dilutions of the test compound were pipetted into agar wells (80 μL per well). […] For reference, see A. H. Litton, Antibiotics: Assessment of Antimicrobial Activity and Resistance, Academic Press, New York, pages 19-30 (1983).

[16] = test system: Micrococcus luteus PCl; assay: In vitro MIC, Agar Well Diffusion Method; assay type: cell-based; details: Agar Well Diffusion Method; Micrococcus luteus PCl; read-out: In Vitro MIC
Procedure: as §2

[17] = test system: Escherichia coli 1269B; assay: In vitro MIC, Agar Well Diffusion Method; assay type: cell-based; details: Agar Well Diffusion Method; Escherichia coli 1269B; read-out: In Vitro MIC
Procedure: as §2

[18] = test system: Serratia marcescens SM; assay: In vitro MIC, Agar Well Diffusion Method; assay type: cell-based; details: Agar Well Diffusion Method; Serratia marcescens SM; read-out: In Vitro MIC
Procedure: as §2

[19] = test system: Proteus vulgaris 101N; assay: In vitro MIC, Agar Well Diffusion Method; assay type: cell-based; details: Agar Well Diffusion Method; Proteus vulgaris 101N; read-out: In Vitro MIC
Procedure: as §2

[20] = test system: Streptococcus faecium ATCC 8043; assay: In vitro MIC, Agar Well Diffusion Method; assay type: cell-based; details: Enterococcus faecium, ATCC8043; Agar Well Diffusion Method; Streptococcus faecium ATCC 8043; read-out: In Vitro MIC
Procedure: as §2

[21] = test system: Klebsiella pneumoniae 369; assay: In vitro MIC, Agar Well Diffusion Method; assay type: cell-based; details: Agar Well Diffusion Method; Klebsiella pneumoniae 369; read-out: In Vitro MIC
Procedure: as §2

[22] = test system: Enterobacter cloacae 2952B; assay: In vitro MIC, Agar Well Diffusion Method; assay type: cell-based; details: Agar Well Diffusion Method; Enterobacter cloacae 2952B; read-out: In Vitro MIC
Procedure: as §2

[23] = test system: Pseudomonas aeruginosa B; assay: In vitro MIC, Agar Well Diffusion Method; assay type: cell-based; details: Agar Well Diffusion Method; Pseudomonas aeruginosa B; read-out: In Vitro MIC
Procedure: as §2

[24] = test system: Streptococcus 82; assay: In vitro MIC, Agar Well Diffusion Method; assay type: cell-based, Streptococcus aureus; details: Agar Well Diffusion Method; Streptococcus aureus 82; read-out: In Vitro MIC
Procedure: as §2

[25] = test system: Staphylococcus aureus Smith; assay: In vitro MIC, Broth Dilution Method; assay type: cell-based; details: Broth Dilution Method; Staphylococcus aureus Smith; read-out: In Vitro MIC
Procedure: as §1

[26] = test system: Pseudomonas aeruginosa Stone 130; assay: In vitro MIC, Broth Dilution Method; assay type: cell-based; details: STONE130; Broth Dilution Method; Pseudomonas aeruginosa Stone 130; read-out: In Vitro MIC
Procedure: as §1

[27] = Proteus vulgaris, ATCC6380, read-out: In Vitro MIC
[28] = BS16, Broth Dilution Method, Citrobacter freundii BS-16, read-out: In Vitro MIC
[29] = Enterobacter cloacae, 5699, read-out: In Vitro MIC
[30] = Broth Dilution Method, Serratia marcescens SM

| SMILES | MIC [1] [µg/mL] | MIC [2, 27] [µg/mL] | MIC [3] [µg/mL] | MIC [4, 28] [µg/mL] | MIC [5, 29] [µg/mL] | MIC [6, 30] [µg/mL] | MIC [7] [µg/mL] | MIC [8] [µg/mL] | MIC [9] [µg/mL] | MIC [10] [µg/mL] | MIC [11] [µg/mL] | MIC [12] [µg/mL] | MIC [13] [µg/mL] | MIC [14] [µg/mL] | MIC [25] [µg/mL] | MIC [26] [µg/mL] | also measured |
| --- | --- | --- | --- | --- | --- | --- | --- | --- | --- | --- | --- | --- | --- | --- | --- | --- | --- |
| CCn1cc(C(=O)O)c(=O)c2cc(F)c(N3CCN(C=N[C@@H]4C(=O)N5C(C(=O)O)=C(C)CS[C@H]45)CC3)cc21 [Compound C, 6R-[6α,7β(E(]]-7-[4-[[(2-Carboxy-3-methyl-8-oxo-5-thia-1-azabicyclo[4.2.0]oct-2-en-7-yl)imino]-methyl]-1-piperazinyl]-1-ethyl-6-fluoro-1,4-dihydro-4-oxo-3-quinolinecarboxylic acid disodium salt] | 2 | 0.063 | 0.25 | 0.25 | 0.063 | 0.125 | 8 | 0.063 | 0.125 | 1 | 0.125 | 0.063 | 8 | 0.125 |  |  | MIC [15]: 3.9 µg/mL; MIC [16]: 250 µg/mL; MIC [17]: 3.9 µg/mL; MIC [18]: 3.9 µg/mL; MIC [19]: 0.98 µg/mL; MIC [20]: 500 µg/mL; MIC [21]: 3.9 µg/mL; MIC [22]: 7.8 µg/mL; MIC [23]: 3.9 µg/mL; MIC [24]: 15.6 µg/mL |
| CCn1cc(C(=O)O)c(=O)c2cc(F)c(N3CCN(C=N[C@@H]4C(=O)N5C(C(=O)O)=C(COC(C)=O)CS[C@H]45)CC3)cc21 [Compound I, [6R-[6α,7β(Z)]]-7-[4-[[[3-[Acetyloxy)methyl]-2-carboxylic-8-oxo-5-thia-1-azabicyclo[4..0]oct-2-en-7-yl]imino]methyl]-1-piperazinyl]-1-ethyl-6-fluoro-1,4-dihydro-4-oxo-3-quinolinecarboxylic acid monosodium salt] | 8 | 0.063 | 0.5 | 0.25 |  | 0.125 | 0.5 | 0.063 | 0.125 | 2 | 0.063 | 0.063 | 4 | 0.125 | 0.25 | 1 | MIC ([5]; Broth Dilution Method, Enterobacter cloacae 5699, read-out: In Vitro MIC): 0.125 µg/mL |
| CCn1cc(C(=O)O)c(=O)c2cc(F)c(N3CCCN(C=N[C@@H]4C(=O)N5[C@@H]4SC(C)(C)[C@@H]5C(=O)O)CC3)nc21 [Compound K, [2S-(2α,5α,6β)]-7-[4-[[2-Carboxy-3,3-dimethyl-7-oxo-4-thia-1-azabicyclo[3.2.0]hept-6-yl)-imino]methyl]hexahydro-1H, 1,4-diazepin-1-yl]-1-ethyl-6-fluoro-1,4-dihydro-4-oxo-1,8-naphthyridine--carboxylic acid disodium salt] |  |  | 8 |  | 4 |  | 2 | 4 | 2 | 16 | 1 | 1 | 128 | 2 | 2 | 8 | MIC ([2]; ATCC6380, Broth Dilution Method, Proteus vulgaris ATCC 6380, read-out: In Vitro MIC): 2 µg/mL; MIC ([4]; Citrobacter freundii, BS16, read-out: In Vitro MIC): 4 µg/mL; MIC ([6]; Serratia marcescens): 4 µg/mL |
